Patent publication US9790496B2, “Microrna compounds and methods for modulating MIR-21 activity” (Regulus Therapeutics, Inc., priority 2011, dated 2017)
Several values for one entry are separate records, joined by “and”; a condition that tells them apart may be missing. Identical values can stand only once. Strand notation (5' to 3'): a small letter for the sugar, then the base; units joined by * are phosphorothioate-linked, units joined directly phosphodiester-linked; [ ] holds rarer units or linkages, { } end groups; capitals alone tell only the bases. e = 2'-O-(2-methoxyethyl) (MOE); l = locked nucleic acid (LNA); k = constrained ethyl (cEt); [5mC] = 5-methylcytosine; d = 2'-deoxy (DNA)

Columns and labels:
miR-21 = miR-21 luciferase sensor assay in Hela cells; assay type: cell-based; conditions: for inhibition of miR-21 in the luciferase assay (in words) / luciferase value normalized to beta-galactosidase activity: Hela cells
Protocol: The compounds were assessed for miR-21 inhibitory activity in a luciferase assay. A microRNA luciferase sensor construct was engineered using pGL3-MCS2 (Promega). The construct was introduced into Hela cells to test the ability of anti-miR compounds to inhibit activity of miR-21. In this assay, miR-21 present in the Hela cells binds to its cognate site(s) in the luciferase sensor construct, and suppresses luciferase expression. When the appropriate anti-miR is introduced into the cells, it binds to miR-21 and relieves suppression of luciferase expression. Thus, in this assay anti-miRs that are effective inhibitors of miR-21 expression will cause an increase in luciferase expression.
Day 1: Hela cells (ATCC), stably transfected with a luciferase construct engineered to contain a sequence complementary of miR-21, were seeded in T-170 flasks (BD Falcon) at 3.5*10^6 cells/flask. Hela cells were grown in Dulbecco's Modified Eagle Medium with High Glucose (Invitrogen).
Day 2: Each flask of Hela cells was transfected with 0.5 ug of a phRL sensor plasmid (Promega) expressing Renilla to be used in normalization. Hela cells were transfected using 20 ul Lipofectamine 2000/flask (Invitrogen). After 4 hours of transfection, cells were washed with PBS and trypsinized. Hela cells were plated at 40 k/well in 24 well plates (BD Falcon) and left overnight.
Day 3: Hela cells were transfected with anti-miRs using Lipofectin (Invitrogen) at 2.5 ul Lipofectin/100 nM ASO/ml Opti-MEM I Reduced Serum Medium (Invitrogen) for 4 hours. After ASO transfection, Hela cells were refed with Dulbecco's Modified Eagle Medium with High Glucose (Invitrogen).
Day 4: Hela cells are passively lysed and luciferase activity measured using the Dual-Luciferase Reporter Assay System (Promega).
The luciferase assay was performed to test the ability of anti-miRs with the nucleoside patterns described herein to inhibit the activity of miR-21. Results were compared to a ‘mock’ treatment, in which cells received no anti-miR treatment. The experiment was repeated and results of two experimental replicates are shown in the following Table B, as the luciferase value normalized to beta-galactosidase activity.
The luciferase assay was performed as described herein to test the ability of anti-miRs in Table F to inhibit the activity of miR-21. Results were compared to a ‘mock’ treatment, in which cells received no anti-miR treatment. The experiment was repeated and results of two experimental replicates are shown in the following Table D, as fold change in luciferase value relative to the mock treatment.

[1] = system: collagen 1A1 and collagen 3A1 expression in kidney, unilateral ureteral obstruction (UUO) model; assay: UUO model of kidney fibrosis: kidney collagen 1A1 and collagen 3A1 expression by real-time PCR; assay type: in vivo, mice; conditions: for Collagen 1A1 (Normalized Expression), individual animal / Collagen 3A1 (Normalized Expression), individual animal: UUO, 20 mg/kg at days -3, -1, +5 (prophylactic), kidney at day 11, real-time PCR normalized to GAPDH then sham, 20 mg/kg
Protocol: Unilateral ureteral obstruction (UUO) is a well-established experimental model of renal injury leading to interstitial fibrosis, and thus is used as an experimental model that is reflective of human kidney disease. UUO is induced by surgically ligating a single ureter. As fibrosis is characterized by an increase in collagen, the presence and extent of kidney fibrosis may be determined by measuring collagen content. Both collagen 1A1 (Col 1A1) and collagen 3A1 (Col 3A1) are measured to assess collagen content. Kidney fibrosis may be visualized by staining tissue samples with picro-sirius red to detect increases in collagen content. Kidney fibrosis may also be observed by measuring the amount of hydroxyproline, which is a major component of collagen, in a sample.
The cEt-containing anti-miR-21 compounds found to be active in the luciferase assay were tested in the UUO model of kidney fibrosis. 25919 comprising 2′-MOE and 2′-fluoro modifications is known to inhibit miR-21 activity in vivo and was included as a positive control. Groups of 8 animals each were treated as follows: UUO only, UUO with PBS, or UUO with anti-miR-21 compound. Relative to the day of the UUO procedure, PBS or anti-miR-21 compound was administered at days −3, −1, and +5. Anti-miR-21 compounds were administered at a dose of 20 mg/kg. As the anti-miR compounds were administered prior to the UUO procedure, this dosing regimen is considered a prophylactic treatment. At day 11, animals were sacrificed and kidney was isolated for measurement of collagen expression. Collagen expression was measured by real-time PCR and normalized first to GAPDH and then to the sham control animals. […]

[2] = concentration of anti-miR compound 0.2 (unit not given)
[3] = concentration of anti-miR compound 0.6 (unit not given)
[4] = concentration of anti-miR compound 1.9 (unit not given)
[5] = concentration of anti-miR compound 5.6 (unit not given)
[6] = concentration of anti-miR compound 16.7 (unit not given)
[7] = concentration of anti-miR compound 50.0 (unit not given)
[8] = 4 nM oligonucleotide, mock transfection 50
[9] = 20 nM oligonucleotide, mock transfection 47
[10] = .16 nM oligonucleotide, mock transfection 45
[11] = .8 nM oligonucleotide, mock transfection 33
[12] = 100 nM oligonucleotide, mock transfection 40
[13] = 500 nM oligonucleotide, mock transfection 39

| Molecule | inhibition of miR-21 in the luciferase assay (in words) (miR-21) | fold change in luciferase value relative to the mock treatment (miR-21; [2]) | fold change in luciferase value relative to the mock treatment (miR-21; [3]) | fold change in luciferase value relative to the mock treatment (miR-21; [4]) | fold change in luciferase value relative to the mock treatment (miR-21; [5]) | fold change in luciferase value relative to the mock treatment (miR-21; [6]) | fold change in luciferase value relative to the mock treatment (miR-21; [7]) | luciferase value normalized to beta-galactosidase activity (miR-21; [8]) | luciferase value normalized to beta-galactosidase activity (miR-21; [9]) | luciferase value normalized to beta-galactosidase activity (miR-21; [10]) | luciferase value normalized to beta-galactosidase activity (miR-21; [11]) | luciferase value normalized to beta-galactosidase activity (miR-21; [12]) | luciferase value normalized to beta-galactosidase activity (miR-21; [13]) | other results |
| --- | --- | --- | --- | --- | --- | --- | --- | --- | --- | --- | --- | --- | --- | --- |
| AE^MeCSAT^MeCSAGT^MeCSTGATSAAG^MeCSTAE (antisense ACATCAGTCTGATAAGCTA; modified nucleosides coded in name, code key not given here) [Compound 25922, 25070 variant: each cytosine is a 5-methyl cytosine] | demonstrated inhibition of miR-21 in a dose-dependent manner | 1.02 | 1.10 | 1.34 | 8.81 | 11.60 | 11.46 | – | – | – | – | – | – | – |
| AECSAETECSAEGETECSTEGEAEUSAEAEGECSTEAE (ACATCAGTCTGATAAGCTA; S-cEt/2'-MOE, phosphorothioate, chemistry not fully specified) [Compound 25072] | demonstrated inhibition of miR-21 in a dose-dependent manner | – | – | – | – | – | – | 76 | 86 | 40 | 49 | – | – | Collagen 1A1 (Normalized Expression), individual animal [1]: 96.2 and 85.7 and 127.4 and 100.0 and 159.2 and 120.5 and 108.0; Collagen 3A1 (Normalized Expression), individual animal [1]: 69.4 and 54.5 and 58.8 and 69.2 and 93.8 and 65.8 and 46.9; reduction in collagen expression (in words) ([1]; meta-analysis of repeated UUO studies, 20 mg/kg at days -3, -1, +5): did not consistently demonstrate a reduction in collagen expression |
| Te^MeCASA^MeCAST^MeCAGST^MeCTGASTAAGS^MeCTAe (antisense TCAACATCAGTCTGATAAGCTA; all C 5-methyl, all phosphorothioate, sugars by position not given here; further chemistry not fully specified) [Compound 25067] | – | – | – | – | – | – | – | 43 | 41 | 38 | 23 | 30 | 42 | – |
| AE^MeCSAT^MeCSAGT^MeCSTGATSAAG^MeCSTAS (antisense eA*k[5mC]*dA*dT*k[5mC]*dA*dG*dT*k[5mC]*dT*dG*dA*kT*dA*dA*dG*k[5mC]*dT*kA) [Compound 25924, 25070 variant: 3'-terminal cEt nucleoside and each cytosine is a 5-methyl cytosine] | demonstrated inhibition of miR-21 in a dose-dependent manner | 1.10 | 1.25 | 1.37 | 7.80 | 13.01 | 8.99 | – | – | – | – | – | – | – |
| AE^MeCLAETE^MeCLAEGETE^MeCLTEGEAE^MeTLAEAEGE^MeCLTEAE (antisense eA*l[5mC]*eA*eT*l[5mC]*eA*eG*eT*l[5mC]*eT*eG*eA*lT*eA*eA*eG*l[5mC]*eT*eA) [Compound 25117, LNA variant: each non-bicyclic nucleoside is 2'-MOE, each cytosine 5-methyl cytosine] | – | 1.05 | 1.15 | 1.14 | 3.64 | 7.36 | 2.91 | – | – | – | – | – | – | – |
| CCCCC1=NC2(CCCC2)C(=O)N1Cc1ccc(-c2ccccc2-c2nnn[nH]2)cc1 [irbesartan, reference compound] | – | – | – | – | – | – | – | – | – | – | – | – | – | reduction in Col3a1 expression (in words) ([1]; UUO comparison with irbesartan, 25070 s.c. 20 mg/kg days -5, -2, +3, irbesartan perorally daily days 0-7, day 10): statistically significant reductions; reduction in Col1A1 expression relative to saline-treated animals (in words) ([1]; UUO comparison with irbesartan, 25070 s.c. 20 mg/kg days -5, -2, +3, irbesartan perorally daily days 0-7, day 10, p<0.05 one-way ANOVA): did not yield a statistically significant reduction |
| TE^MeCEAEAECSAETECSAEGETECSTEGEAEUSAEAEGECSTEAE (TCAACATCAGTCTGATAAGCTA; listed as DNA, chemistry not fully specified) [Compound 25068] | demonstrated inhibition of miR-21 in a dose-dependent manner | – | – | – | – | – | – | 64 | 86 | 45 | 54 | 97 | – | Collagen 1A1 (Normalized Expression), individual animal [1]: 84.7 and 75.1 and 85.5 and 89.1 and 90.4 and 125.8 and 124.4; Collagen 3A1 (Normalized Expression), individual animal [1]: 64.8 and 56.2 and 47.4 and 76.2 and 57.0 and 63.0 and 59.6 |
| Ae^MeCAST^MeCAGST^MeCTGASTASAGS^MeCTAe (ACATCAGTCTGATAAGCTA; all C 5-methyl, all phosphorothioate, sugars by position not given here; further chemistry not fully specified) [Compound 25071] | – | – | – | – | – | – | – | 50 | 63 | 48 | 36 | 53 | 42 | – |
| AeTe^MeCeAeGeTe^MeCeTeGSAsTeASASGe^MeCeUSAS [Compound 25731] | – | – | – | – | – | – | – | 32 | 39 | 34 | 45 | 38 | 59 | – |
| AeTe^MeCeASGSTe^MeCeTeGSASTeAeASGS^MeCeTeAe [Compound 25077] | – | – | – | – | – | – | – | 45 | 33 | 34 | 33 | 42 | 40 | – |
| AE^MeCSAETE^MeCSAEGETE^MeCSTEGEAE^MeTSAEAEGE^MeCSTEAE (antisense eA*k[5mC]*eA*eT*k[5mC]*eA*eG*eT*k[5mC]*eT*eG*eA*kT*eA*eA*eG*k[5mC]*eT*eA; further chemistry not given here) [Compound 25116, 25070 variant: each non-bicyclic nucleoside is 2'-MOE, each cytosine 5-methyl cytosine] | – | 1.06 | 0.98 | 1.06 | 2.47 | 5.64 | 1.98 | – | – | – | – | – | – | – |
